Results taken from patent publication US4068070A, “α-Cyanoamine compounds and a process for producing the same” (Fuji Chemical Industry Co., Ltd., priority 1974, dated 1978).

What was measured:
Assay type in all cases: in vivo, mongrel adult dogs
[1] = tested on: arterial mean blood pressure; assay: Effects on arterial mean blood pressure
Description: (§1) All experiments were made on male and female thoractomized mongrel adult dogs weighing about 10 kg. under anesthesia with pentobarbital sodium. Compounds A, D, E and F were suspended in 0.2% CMC solution, Compound B dissolved in hydrochloric acid solution (pH 6), and Compound C and active placebo being dissolved in physiological saline solution. Animals were administered the drug intravenously on brachiuma with either test compound or active placebo.
(§2) Arterial blood pressure was measured by pressure transducer (Nippon Koden MPU-0.5) connected with the cannula inserted from exposed carotid artery into aorta. Aortic blood flow was determined by means of electromagnetic flow meter (Nippon Koden MF-5) mounted at the origin of the aorta. Coronary sinus out flow and coronary sinus oxygen tension were assessed by means of electromagnetic flow meter (Nippon Koden MF-5) and P02 macro electrode (Beokmann Moder 160-C), respectively using Morawitz cannulization technique. Heart rate was measured by cardiotachometer (Nippon Koden RT-2) synchronized with systolic blood pressure of aorta.

[2] = tested on: heart rate; assay: Effects on heart rate
Description: as §1, §2

[3] = tested on: aortic blood flow; assay: Effects on aortic blood flow
Description: as §1, §2

[4] = tested on: coronary sinus oxygen tension; assay: Effects on coronary sinus oxygen tension
Description: as §1, §2

[5] = tested on: coronary sinus out flow; assay: Effects on coronary sinus out flow
Description: as §1, §2

CCOC(=O)N1CCN(C(C#N)c2ccc(OC)c(OC)c2)CC1 (centres unmarked) [Compound A]
Changes (%) of basal values, arterial mean blood pressure ([1]; 2.0 mg/kg i.v., 1 min): -1.5%
Changes (%) of basal values, arterial mean blood pressure ([1]; 2.0 mg/kg i.v., 5 min): -2.6%
Changes (%) of basal values, arterial mean blood pressure ([1]; 2.0 mg/kg i.v., 10 min): -4.2%
Changes (%) of basal values, arterial mean blood pressure ([1]; 2.0 mg/kg i.v., 20 min): -3.8%
Changes (%) of basal values, arterial mean blood pressure ([1]; 2.0 mg/kg i.v., 30 min): -4.5%
Changes (%) of basal values, arterial mean blood pressure ([1]; 2.0 mg/kg i.v., imm.): -4.0%
Changes (%) of basal values, arterial mean blood pressure ([1]; 6.0 mg/kg i.v., 1 min): -3.4%
Changes (%) of basal values, arterial mean blood pressure ([1]; 6.0 mg/kg i.v., 5 min): -5.2%
Changes (%) of basal values, arterial mean blood pressure ([1]; 6.0 mg/kg i.v., 10 min): -6.0%
Changes (%) of basal values, arterial mean blood pressure ([1]; 6.0 mg/kg i.v., 20 min): -5.2%
Changes (%) of basal values, arterial mean blood pressure ([1]; 6.0 mg/kg i.v., 30 min): -3.0%
Changes (%) of basal values, arterial mean blood pressure ([1]; 6.0 mg/kg i.v., imm.): -4.2%
Changes (%) of basal values, arterial mean blood pressure ([1]; 20.0 mg/kg i.v., 1 min): -16.9%
Changes (%) of basal values, arterial mean blood pressure ([1]; 20.0 mg/kg i.v., 5 min): -16.9%
Changes (%) of basal values, arterial mean blood pressure ([1]; 20.0 mg/kg i.v., 10 min): -16.0%
Changes (%) of basal values, arterial mean blood pressure ([1]; 20.0 mg/kg i.v., 20 min): -17.0%
Changes (%) of basal values, arterial mean blood pressure ([1]; 20.0 mg/kg i.v., 30 min): -14.9%
Changes (%) of basal values, arterial mean blood pressure ([1]; 20.0 mg/kg i.v., imm.): -14.5%
Effects on arterial mean blood pressure (in words) ([1]; i.v., anesthetized dogs): hypotensive effects being proportioned to their doses which were of long duration
Changes(%) of basal values, heart rate ([2]; 2.0 mg/kg i.v., 1 min): -4.7%
Changes(%) of basal values, heart rate ([2]; 2.0 mg/kg i.v., 5 min): -0.6%
Changes(%) of basal values, heart rate ([2]; 2.0 mg/kg i.v., 10 min): -0.4%
Changes(%) of basal values, heart rate ([2]; 2.0 mg/kg i.v., 20 min): 0%
Changes(%) of basal values, heart rate ([2]; 2.0 mg/kg i.v., 30 min): 0%
Changes(%) of basal values, heart rate ([2]; 2.0 mg/kg i.v., imm.): -5.2%
Changes(%) of basal values, heart rate ([2]; 6.0 mg/kg i.v., 1 min): -3.9%
Changes(%) of basal values, heart rate ([2]; 6.0 mg/kg i.v., 5 min): -2.3%
Changes(%) of basal values, heart rate ([2]; 6.0 mg/kg i.v., 10 min): -0.9%
Changes(%) of basal values, heart rate ([2]; 6.0 mg/kg i.v., 20 min): +1.0%
Changes(%) of basal values, heart rate ([2]; 6.0 mg/kg i.v., 30 min): +1.0%
Changes(%) of basal values, heart rate ([2]; 6.0 mg/kg i.v., imm.): -5.0%
Changes(%) of basal values, heart rate ([2]; 20.0 mg/kg i.v., 1 min): +1.5%
Changes(%) of basal values, heart rate ([2]; 20.0 mg/kg i.v., 5 min): 0%
Changes(%) of basal values, heart rate ([2]; 20.0 mg/kg i.v., 10 min): -1.8%
Changes(%) of basal values, heart rate ([2]; 20.0 mg/kg i.v., 20 min): -6.0%
Changes(%) of basal values, heart rate ([2]; 20.0 mg/kg i.v., 30 min): -6.7%
Changes(%) of basal values, heart rate ([2]; 20.0 mg/kg i.v., imm.): -7.0%
Effects on heart rate (in words) ([2]; i.v., anesthetized dogs): a slight negative chronotropic effect
Changes (%) of basal values, aortic blood flow ([3]; 2.0 mg/kg i.v., 1 min): +4.3%
Changes (%) of basal values, aortic blood flow ([3]; 2.0 mg/kg i.v., 5 min): +3.7%
Changes (%) of basal values, aortic blood flow ([3]; 2.0 mg/kg i.v., 10 min): +2.3%
Changes (%) of basal values, aortic blood flow ([3]; 2.0 mg/kg i.v., 20 min): +1.0%
Changes (%) of basal values, aortic blood flow ([3]; 2.0 mg/kg i.v., 30 min): +1.0%
Changes (%) of basal values, aortic blood flow ([3]; 2.0 mg/kg i.v., imm.): +0.5%
Changes (%) of basal values, aortic blood flow ([3]; 6.0 mg/kg i.v., 1 min): +5.8%
Changes (%) of basal values, aortic blood flow ([3]; 6.0 mg/kg i.v., 5 min): +3.7%
Changes (%) of basal values, aortic blood flow ([3]; 6.0 mg/kg i.v., 10 min): +0.1%
Changes (%) of basal values, aortic blood flow ([3]; 6.0 mg/kg i.v., 20 min): -0.2%
Changes (%) of basal values, aortic blood flow ([3]; 6.0 mg/kg i.v., 30 min): +0.2%
Changes (%) of basal values, aortic blood flow ([3]; 6.0 mg/kg i.v., imm.): +4.3%
Changes (%) of basal values, aortic blood flow ([3]; 20.0 mg/kg i.v., 1 min): +7.3%
Changes (%) of basal values, aortic blood flow ([3]; 20.0 mg/kg i.v., 5 min): +10.2%
Changes (%) of basal values, aortic blood flow ([3]; 20.0 mg/kg i.v., 10 min): +8.0%
Changes (%) of basal values, aortic blood flow ([3]; 20.0 mg/kg i.v., 20 min): +3.3%
Changes (%) of basal values, aortic blood flow ([3]; 20.0 mg/kg i.v., 30 min): +1.0%
Changes (%) of basal values, aortic blood flow ([3]; 20.0 mg/kg i.v., imm.): +6.1%
increased aortic blood flow ([3]; during the course of observation period, i.v.): 2-8%
Changes(%) of basal values, coronary sinus oxygen tension ([4]; 2.0 mg/kg i.v., 1 min): +15.2%
Changes(%) of basal values, coronary sinus oxygen tension ([4]; 2.0 mg/kg i.v., 5 min): +13.8%
Changes(%) of basal values, coronary sinus oxygen tension ([4]; 2.0 mg/kg i.v., 10 min): +12.5%
Changes(%) of basal values, coronary sinus oxygen tension ([4]; 2.0 mg/kg i.v., 20 min): +12.0%
Changes(%) of basal values, coronary sinus oxygen tension ([4]; 2.0 mg/kg i.v., 30 min): +12.0%
Changes(%) of basal values, coronary sinus oxygen tension ([4]; 2.0 mg/kg i.v., imm.): +11.2%
Changes(%) of basal values, coronary sinus oxygen tension ([4]; 6.0 mg/kg i.v., 1 min): +27.5%
Changes(%) of basal values, coronary sinus oxygen tension ([4]; 6.0 mg/kg i.v., 5 min): +27.0%
Changes(%) of basal values, coronary sinus oxygen tension ([4]; 6.0 mg/kg i.v., 10 min): +30.0%
Changes(%) of basal values, coronary sinus oxygen tension ([4]; 6.0 mg/kg i.v., 20 min): +19.6%
Changes(%) of basal values, coronary sinus oxygen tension ([4]; 6.0 mg/kg i.v., 30 min): +13.5%
Changes(%) of basal values, coronary sinus oxygen tension ([4]; 6.0 mg/kg i.v., imm.): +18.0%
Changes(%) of basal values, coronary sinus oxygen tension ([4]; 20.0 mg/kg i.v., 1 min): +47.2%
Changes(%) of basal values, coronary sinus oxygen tension ([4]; 20.0 mg/kg i.v., 5 min): +39.0%
Changes(%) of basal values, coronary sinus oxygen tension ([4]; 20.0 mg/kg i.v., 10 min): +91.7%
Changes(%) of basal values, coronary sinus oxygen tension ([4]; 20.0 mg/kg i.v., 20 min): +72.5%
Changes(%) of basal values, coronary sinus oxygen tension ([4]; 20.0 mg/kg i.v., 30 min): +56.9%
Changes(%) of basal values, coronary sinus oxygen tension ([4]; 20.0 mg/kg i.v., imm.): +31.6%
Effects on coronary sinus oxygen tension (in words) ([4]; i.v., anesthetized dogs): a significant increase in coronary sinus oxygen tension, effect of which was of long duration
Changes(%) of basal values, coronary sinus out flow ([5]; 2.0 mg/kg i.v., 1 min): +7.6%
Changes(%) of basal values, coronary sinus out flow ([5]; 2.0 mg/kg i.v., 5 min): +5.4%
Changes(%) of basal values, coronary sinus out flow ([5]; 2.0 mg/kg i.v., 10 min): +4.7%
Changes(%) of basal values, coronary sinus out flow ([5]; 2.0 mg/kg i.v., 20 min): +4.0%
Changes(%) of basal values, coronary sinus out flow ([5]; 2.0 mg/kg i.v., 30 min): +3.5%
Changes(%) of basal values, coronary sinus out flow ([5]; 2.0 mg/kg i.v., imm.): +10.9%
Changes(%) of basal values, coronary sinus out flow ([5]; 6.0 mg/kg i.v., 1 min): +16.6%
Changes(%) of basal values, coronary sinus out flow ([5]; 6.0 mg/kg i.v., 5 min): +17.0%
Changes(%) of basal values, coronary sinus out flow ([5]; 6.0 mg/kg i.v., 10 min): +18.0%
Changes(%) of basal values, coronary sinus out flow ([5]; 6.0 mg/kg i.v., 20 min): +8.5%
Changes(%) of basal values, coronary sinus out flow ([5]; 6.0 mg/kg i.v., 30 min): +8.0%
Changes(%) of basal values, coronary sinus out flow ([5]; 6.0 mg/kg i.v., imm.): +12.0%
Changes(%) of basal values, coronary sinus out flow ([5]; 20.0 mg/kg i.v., 1 min): +34.3%
Changes(%) of basal values, coronary sinus out flow ([5]; 20.0 mg/kg i.v., 5 min): +48.3%
Changes(%) of basal values, coronary sinus out flow ([5]; 20.0 mg/kg i.v., 10 min): +47.1%
Changes(%) of basal values, coronary sinus out flow ([5]; 20.0 mg/kg i.v., 20 min): +30.0%
Changes(%) of basal values, coronary sinus out flow ([5]; 20.0 mg/kg i.v., 30 min): +11.8%
Changes(%) of basal values, coronary sinus out flow ([5]; 20.0 mg/kg i.v., imm.): +18.5%
Effects on coronary sinus out flow (in words) ([5]; i.v., anesthetized dogs): a marked increasing effect on coronary sinus out flow, which was proportioned to doses thereof and of long duration
